# Assay results taken from patent publication EP2687509A2, “Dicarboxyimides derivatives for use in the treatment of cancer” (Warszawski Uniwersytet Medyczny, priority 2012, dated 2014).
# Tests used:
# HUVEC cells = test: MTT cytotoxicity assay, HUVEC cells; assay type: cell-based; conditions: Homo sapiens, 48 h incubation, * = compound precipitated at 1 mM from cell cultures
# Procedure: (§1) A series of dicarboximides derivatives (table 1) was tested for cytotoxic properties against four cell lines. The tests were conducted by means of MTT assay where yellow tetrazole salt was processed by the dehydrogenases in mitochondria of live cells into violet formazan. The following cell lines were used:
# - HUVEC cells (normal human endothelial cells).
# (§2) 1. HeLa, K562, HL60, HUVEC cells in an amount of 7 thousand cells / well (in 200 µL medium) were seeded in 96-well plates. Cells were incubated overnight in an incubator (37°C, 5% CO2)
# (§3) 2. Test compounds were dissolved in DMSO and added in an amount of 2µL to the surface of the cells to give the following final concentrations in the cell culture (1 mM, 10 µm, 100 nM, 1 nM). As a control, cells exposed to 1% DMSO were used.
# (§4) 3. Cytotoxicity of the test compounds was evaluated by MTT test. After 48-hour incubation of HeLa, K562, HL60 or HUVEC cells with the test compounds, MTT (5mg/mL) was added in an amount of 25µL/well. MTT, a yellow tetrazolium salt was reduced to purple formazan by mitochondrial dehydrogenases of living cells. The amount of formazan could be determined spectrophotometrically and was proportional to the number of live cells. Cells were incubated with MTT for 2 hours in an incubator (37°C, 5% CO2). Next, lysis buffer containing SDS and DMF was added (95µL/well) to each well and incubated overnight at 37°C, 5% CO2.
# (§5) 4. The plates were analyzed by reading the absorbance at a wavelength of 570 nm and 650 nm using the plate-reader Fluostar Omega. The measured absorbance at 570 nm is proportional to the number of living cells. IC50 values (concentration of compound causing 50% cell mortality) were read from the charts by interpolation to 50% cell survival.
# HeLa cells = test: MTT cytotoxicity assay, HeLa cells; assay type: cell-based; conditions: Homo sapiens, 48 h incubation, * = compound precipitated at 1 mM from cell cultures
# Procedure: as §1
# - HeLa cells (uterine cervix cancer)
# as §2, §3, §4, §5
# K562 cells = test: MTT cytotoxicity assay, K562 cells; assay type: cell-based, human; conditions: 48 h incubation, * = compound precipitated at 1 mM from cell cultures
# Procedure: as §1
# - K562 cells (human chronic myelogenous leukaemia) and
# as §2, §3, §4, §5
# caspase 3 and 7 = test: Apo-ONE Homogeneous Caspase-3/7 Assay in K562 cells; assay type: cell-based, human; conditions: for activity of caspase 3 and 7: 5 x IC50 (a5: 10 µM), 18 hours, compared with K562 and K562+DMSO, Fig. 1
# Procedure: The observed cytotoxicity of compounds a3-7 was tested for its origin, i.e. induction of necrosis or apoptosis in the K562 cells of chronic myelogenous leukaemia.
# K562 cells in RPMI 1640 medium containing 10% fetal calf serum and antibiotics were seeded on 96-well plate in an amount of 20x10^3 cells / well. Cells were cultured for 24 hours in an incubator (5% CO2, 37°C).
# Compounds a3-a7 were dissolved in DMSO and added to the cell medium; final concentration in the cell culture was 5 x IC50. Cells cultured in the presence of 1% DMSO served as a negative control. Cells grown in the presence of 1 µM staurosporin (a strong inducer of apoptosis) served as a positive control. […]
# The activity of caspase 3 and 7 was determined by means of Apo-ONE® Homogeneous Caspase-3/7 Assay (Promega, Madison, WI, USA), in compliance with manufacturer's guidelines. Cells were lysed and incubated with a profluorescent substrate for caspases for 1.5 hours at room temperature. Due to proteolytic activity of caspases, the profluorescent substrate was converted into a fluorescent product the amount of which could be determined by measurement of fluorescence intensity.
# The fluorescence intensity in each well was measured using a plate reader Fluostar Omega (BMG-Labtech, Germany) at an excitation wavelength of 485 nm and emission 520 nm. The intensity of fluorescence is proportional to the activity of caspase 3 and 7 in the sample.
# HL60 cells = test: MTT cytotoxicity assay, HL60 cells; assay type: cell-based; conditions: Homo sapiens, HL-60, 48 h, 48 h incubation
# Procedure: as §1
# - HL60 cells (human acute myelogenous leukaemia)
# as §2, §3, §4, §5
# [1] = * = compound precipitated at 1 mM from cell cultures
Structure (SMILES),IC50 (HUVEC cells) [µM],IC50 (HeLa cells) [µM],"IC50 (K562 cells; Homo sapiens, K562, 48 h) [µM]",other results
CN(C)CCN1C(=O)C2C(C1=O)C1(c3ccccc3)CC2(c2ccccc2)C(c2ccccc2)=C1c1ccccc1 (stereo not shown) [a1],> 1000,1,1,–
CN(C)CCCN1C(=O)C2C(C1=O)C1(c3ccccc3)CC2(c2ccccc2)C(c2ccccc2)=C1c1ccccc1 (stereo not shown) [a2],4,1,1,–
CCC12C(=O)C(CC)(C(c3ccccc3)=C1c1ccccc1)C1C(=O)N(CCN(C)C)C(=O)C12 (stereo not shown) [a3],> 1000,> 1000,–,IC50 (K562 cells): 10 µM; activity of caspase 3 and 7 (caspase 3 and 7): do not increase; IC50 (HL60 cells): 1 to 10 µM; IC50 (HL60 cells; [1]): > 1000 µM
CCN(CC)CCN1C(=O)C2C(C1=O)C1(CC)C(=O)C2(CC)C(c2ccccc2)=C1c1ccccc1 (stereo not shown) [a4],> 1000,> 1000,–,IC50 (K562 cells): 4.5 µM; activity of caspase 3 and 7 (caspase 3 and 7): do not increase; IC50 (HL60 cells): 1 to 10 µM; IC50 (HL60 cells; [1]): > 1000 µM
CCC12C(=O)C(CC)(C(c3ccccc3)=C1c1ccccc1)C1C(=O)N(CCN3CCCCC3)C(=O)C12 (stereo not shown) [a5],> 1000,> 1000,1 to 10,"IC50 (K562 cells): 2 µM; activity of caspase 3 and 7 (caspase 3 and 7): increased; activity of caspases 3 and 7 (caspase 3 and 7; a5 concentration = 10 µM, incubation time = 24h): increased; IC50 (HL60 cells): 1 to 10 µM; IC50 (HL60 cells; [1]): > 1000 µM"
CCC12C(=O)C(CC)(C(c3ccccc3)=C1c1ccccc1)C1C(=O)N(CC(O)CN(C)C)C(=O)C12 (stereo not shown) [a8],–,> 1000,> 1000,–
CC(C)NCC(O)CN1C(=O)C2C(C1=O)C1(c3ccccc3)CC2(c2ccccc2)C(c2ccccc2)=C1c1ccccc1 (stereo not shown) [a9],1,1,1,–
CN(C)CC(O)CN1C(=O)C2C(C1=O)C1(c3ccccc3)CC2(c2ccccc2)C(c2ccccc2)=C1c1ccccc1 (stereo not shown) [a10],1,1,1,–
CC(C)NCC(O)CN1C(=O)C2C(C1=O)C1(C)C(=O)C2(C)C(c2ccccc2)=C1c1ccccc1 (stereo not shown) [a11],70,90,90,–
CN(C)CC(O)CN1C(=O)C2C(C1=O)C1(C)C(=O)C2(C)C(c2ccccc2)=C1c1ccccc1 (stereo not shown) [a12],100,100,90,–
CC(C)NCC(O)CN1C(=O)C2C(C1=O)C1(c3ccccc3)C(=O)C2(c2ccccc2)C(c2ccccc2)=C1c1ccccc1 (stereo not shown) [a13],2,1,0.9,–
CN(C)CC(O)CN1C(=O)C2C(C1=O)C1(c3ccccc3)C(=O)C2(c2ccccc2)C(c2ccccc2)=C1c1ccccc1 (stereo not shown) [a14],2,1,0.9,–
COC12C=CC(CC1)C1C(=O)N(CCN(C)C)C(=O)C12 (stereo not shown) [b1],–,> 1000,> 1000,–
CCN(CC)CCN1C(=O)C2C3C=CC(OC)(CC3)C2C1=O (stereo not shown) [b2],–,> 1000,> 1000,–
COC12C=CC(CC1)C1C(=O)N(CCN3CCOCC3)C(=O)C12 (stereo not shown) [b3],–,> 1000,> 1000,–
COC12C=CC(CC1)C1C(=O)N(CCN3CCCCC3)C(=O)C12 (stereo not shown) [b4],–,> 1000,> 1000,–
COC12C=CC(CC1)C1C(=O)N(CCCN(C)C)C(=O)C12 (stereo not shown) [b5],–,> 1000,> 1000,–
CC(=O)OC12C=CC(OC(C)=O)(CC1)C1C(=O)N(CCN(C)C)C(=O)C12 (stereo not shown) [b6],–,> 1000,> 1000,–
CCN(CC)CCN1C(=O)C2C(C1=O)C1(OC(C)=O)C=CC2(OC(C)=O)CC1 (stereo not shown) [b7],–,> 1000,> 1000,–

Structure (SMILES),IC50 (HUVEC cells) [µM],IC50 (HeLa cells) [µM],"IC50 (K562 cells; Homo sapiens, K562, 48 h) [µM]",other results
CC(=O)OC12C=CC(OC(C)=O)(CC1)C1C(=O)N(CCN3CCOCC3)C(=O)C12 (stereo not shown) [b8],–,> 1000,> 1000,–
CC(=O)OC12C=CC(OC(C)=O)(CC1)C1C(=O)N(CCN3CCCCC3)C(=O)C12 (stereo not shown) [b9],–,> 1000,> 1000,–
CC(=O)OC12C=CC(OC(C)=O)(CC1)C1C(=O)N(CCCN(C)C)C(=O)C12 (stereo not shown) [b10],–,> 1000,> 1000,–
CC1=CC2(C)CC(C)(C)C1C1C(=O)N(CCN(C)C)C(=O)C12 (stereo not shown) [b11],300,90,100,–
CCN(CC)CCN1C(=O)C2C3C(C)=CC(C)(CC3(C)C)C2C1=O (stereo not shown) [b12],–,1000,> 1000,–
CC1=CC2(C)CC(C)(C)C1C1C(=O)N(CCN3CCOCC3)C(=O)C12 (stereo not shown) [b13],100,90,90,–
CC1=CC2(C)CC(C)(C)C1C1C(=O)N(CCN3CCCCC3)C(=O)C12 (stereo not shown) [b14],–,100,100,–
CC1=CC2(C)CC(C)(C)C1C1C(=O)N(CCCN(C)C)C(=O)C12 (stereo not shown) [b15],700,100,90,–
CC(C)COC12CCC(C(=O)C1)C1C(=O)N(CCN(C)C)C(=O)C12 (stereo not shown) [c1],–,> 1000,> 1000,–
CCN(CC)CCN1C(=O)C2C3CCC(OCC(C)C)(CC3=O)C2C1=O (stereo not shown) [c2],–,> 1000,> 1000,–
CC(C)COC12CCC(C(=O)C1)C1C(=O)N(CCN3CCOCC3)C(=O)C12 (stereo not shown) [c3],–,> 1000,> 1000,–
CC(C)COC12CCC(C(=O)C1)C1C(=O)N(CCN3CCCCC3)C(=O)C12 (stereo not shown) [c4],–,> 1000,> 1000,–
CC(C)COC12CCC(C(=O)C1)C1C(=O)N(CCCN(C)C)C(=O)C12 (stereo not shown) [c5],–,> 1000,> 1000,–
CCOC(=O)C1CC2C(=O)CC1(C)C1C(=O)N(CCN(C)C)C(=O)C21 (stereo not shown) [c6],> 1000,100,> 1000,–
CCOC(=O)C1CC2C(=O)CC1(C)C1C(=O)N(CCN(CC)CC)C(=O)C21 (stereo not shown) [c7],–,> 1000,> 1000,–
CCOC(=O)C1CC2C(=O)CC1(C)C1C(=O)N(CCN3CCOCC3)C(=O)C21 (stereo not shown) [c8],–,> 1000,> 1000,–
CCOC(=O)C1CC2C(=O)CC1(C)C1C(=O)N(CCN3CCCCC3)C(=O)C21 (stereo not shown) [c9],–,> 1000,> 1000,–
CCOC(=O)C1CC2C(=O)CC1(C)C1C(=O)N(CCCN(C)C)C(=O)C21 (stereo not shown) [c10],–,> 1000,> 1000,–
